According to ChEMBL document CHEMBL1909046, “DrugMatrix in vitro pharmacology data”:

Key:
[1] = target: T1, Substance-K receptor (Homo sapiens, UniProt P21452); format: cell membranes, CHO, Membrane; conditions: cho; note: in other assays of this panel Not Active means under 50% inhibition at 10 µM
T1 sequence (P21452 whole entry): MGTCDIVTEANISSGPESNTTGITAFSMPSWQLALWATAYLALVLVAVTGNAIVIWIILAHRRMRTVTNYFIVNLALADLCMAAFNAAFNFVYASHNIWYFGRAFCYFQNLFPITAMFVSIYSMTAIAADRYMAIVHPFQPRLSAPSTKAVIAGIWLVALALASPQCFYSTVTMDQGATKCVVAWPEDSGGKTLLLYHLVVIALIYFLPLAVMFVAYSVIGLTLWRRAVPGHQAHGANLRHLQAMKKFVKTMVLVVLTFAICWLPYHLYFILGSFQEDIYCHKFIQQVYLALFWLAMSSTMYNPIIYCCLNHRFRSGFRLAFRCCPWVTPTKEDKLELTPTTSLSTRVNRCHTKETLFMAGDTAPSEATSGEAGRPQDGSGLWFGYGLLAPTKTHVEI

[2] = DRUGMATRIX: Serotonin (5-Hydroxytryptamine) 5-HT3 radioligand binding (ligand: [3H] GR-65630); format: cell membranes, Membrane; conditions: hek293; Not Active = under 50% inhibition at 10 µM
[3] = target: Glycine receptor (Rattus norvegicus, UniProt P22771+P24524+P07727+P20781); format: cell membranes, Wistar, Spinal cord, Membrane; note: in other assays of this panel Not Active means under 50% inhibition at 10 µM
[4] = DRUGMATRIX: Phosphodiesterase PDE3 enzyme inhibition (substrate: [3H]cAMP + cAMP); format: tissue-based, Homo sapiens; conditions: platelet; Not Active = under 50% inhibition at 10 µM
[5] = target: Nitric oxide synthase 1 (Rattus norvegicus, UniProt P29476); format: tissue-based, Cerebellum; note: in other assays of this panel Not Active means under 50% inhibition at 10 µM
[6] = target: Beta-2 adrenergic receptor (Homo sapiens, UniProt P07550); assay: DRUGMATRIX: Adrenergic beta2 radioligand binding (ligand: [3H] CGP-12177); format: cell membranes, CHO, Membrane; conditions: cho; Not Active = under 50% inhibition at 10 µM

Nitric oxide synthase 1, sequence (P29476 whole entry): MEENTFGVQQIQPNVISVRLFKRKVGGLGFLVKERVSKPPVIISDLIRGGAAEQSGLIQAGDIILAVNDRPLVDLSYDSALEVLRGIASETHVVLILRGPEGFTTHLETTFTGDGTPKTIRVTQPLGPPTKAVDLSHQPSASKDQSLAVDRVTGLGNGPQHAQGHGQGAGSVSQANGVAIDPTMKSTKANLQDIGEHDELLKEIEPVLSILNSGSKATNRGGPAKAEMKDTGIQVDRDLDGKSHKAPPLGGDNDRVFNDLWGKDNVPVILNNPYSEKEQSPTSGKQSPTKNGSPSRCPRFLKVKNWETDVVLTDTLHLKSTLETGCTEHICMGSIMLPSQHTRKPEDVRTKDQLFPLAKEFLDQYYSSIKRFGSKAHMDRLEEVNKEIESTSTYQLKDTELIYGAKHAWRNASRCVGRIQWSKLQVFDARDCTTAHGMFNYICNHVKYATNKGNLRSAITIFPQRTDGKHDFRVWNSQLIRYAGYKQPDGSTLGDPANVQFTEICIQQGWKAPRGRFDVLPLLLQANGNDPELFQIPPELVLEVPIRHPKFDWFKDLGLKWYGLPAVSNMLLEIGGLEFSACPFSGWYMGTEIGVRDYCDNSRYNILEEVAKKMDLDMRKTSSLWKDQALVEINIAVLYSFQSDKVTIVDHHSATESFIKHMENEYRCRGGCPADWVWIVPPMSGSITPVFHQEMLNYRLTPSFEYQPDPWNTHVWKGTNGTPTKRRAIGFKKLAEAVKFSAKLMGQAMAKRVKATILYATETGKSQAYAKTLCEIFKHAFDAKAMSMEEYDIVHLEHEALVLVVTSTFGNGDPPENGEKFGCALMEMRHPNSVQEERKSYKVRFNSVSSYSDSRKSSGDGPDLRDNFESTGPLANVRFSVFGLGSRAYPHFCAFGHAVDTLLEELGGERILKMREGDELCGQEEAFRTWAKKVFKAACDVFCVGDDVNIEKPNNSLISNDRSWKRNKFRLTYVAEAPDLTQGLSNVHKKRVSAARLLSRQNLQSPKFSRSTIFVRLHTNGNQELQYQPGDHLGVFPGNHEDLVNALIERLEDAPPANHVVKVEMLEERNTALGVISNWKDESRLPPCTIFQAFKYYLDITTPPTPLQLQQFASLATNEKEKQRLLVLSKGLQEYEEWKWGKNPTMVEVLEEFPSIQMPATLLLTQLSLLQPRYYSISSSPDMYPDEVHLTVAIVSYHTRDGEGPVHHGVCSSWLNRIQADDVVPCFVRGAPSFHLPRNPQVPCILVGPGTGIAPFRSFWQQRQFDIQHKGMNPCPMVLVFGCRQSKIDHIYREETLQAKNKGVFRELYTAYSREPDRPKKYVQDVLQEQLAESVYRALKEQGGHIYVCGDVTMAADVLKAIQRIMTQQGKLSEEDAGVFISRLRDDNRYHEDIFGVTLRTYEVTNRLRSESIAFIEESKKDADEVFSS

CC[C@@]1(O)C(=O)OCc2c1cc1n(c2=O)Cc2cc3c(CN(C)C)c(O)ccc3nc2-1 [TOPOTECAN]
Not Active: IC50 [1] | IC50 [2] | Ki [2] | IC50 [3] | IC50 [4] | Ki [4] | IC50 [5] | IC50 [6]

CC1=C(/C=C/C(C)=C/C=C/C(C)=C/C(=O)O)C(C)(C)CCC1 [TRETINOIN]
Not Active: IC50 [1] | IC50 [2] | Ki [2] | IC50 [3] | IC50 [4] | Ki [4] | IC50 [5] | IC50 [6]

CC(Cl)(Cl)Cl [TRICHLOROETHANE]
Not Active: IC50 [1] | IC50 [2] | Ki [2] | IC50 [3] | IC50 [4] | Ki [4] | IC50 [5] | IC50 [6]

CN1C(=O)OC(C)(C)C1=O [TRIMETHADIONE]
Not Active: IC50 [1] | IC50 [2] | Ki [2] | IC50 [3] | IC50 [4] | Ki [4] | IC50 [5] | IC50 [6]

LEAD(IV) ACETATE
Not Active: IC50 [1] | Ki [1] | IC50 [2] | Ki [2] | IC50 [3] | Ki [3] | IC50 [4] | Ki [4] | IC50 [5] | Ki [5] | IC50 [6] | Ki [6]
